# Data taken from publication PMC10962542, “Inhibition of Aurora‐A/N‐Myc Protein–Protein Interaction Using Peptidomimetics: Understanding the Role of Peptide Cyclization” (Chembiochem, 2023).
# Where two headings read alike, the source gives them in different places. *1 amine or outer side, *2 acyl side, *3 side chain or, on linkers, in order; H or OH if unused. Where a SMILES comes first, the peptide text is derived from it. Bridges are numbered along the chain shown (N, C = ends). Maleimide(3,4-diyl) = O=C1NC(=O)C([*:2])=C1[*:1]
# Key:
# [1] = biological target: T1, N‐Myc/Aurora‐A interaction (Aurora‐A122‐403‐C290A/C393A) (Homo sapiens, UniProt O14965, C290A/C393A); assay: competition fluorescence anisotropy (FA) assay against fluorescein labelled N‐Myc61‐89; assay type: binding; also: equilibrated 2 h at room temperature
# T1 construct: Aurora‐A 122‐403‐C290A/C393A protein was produced as described previously; made in house
# T1 sequence (O14965 122-403 C290A/C393A): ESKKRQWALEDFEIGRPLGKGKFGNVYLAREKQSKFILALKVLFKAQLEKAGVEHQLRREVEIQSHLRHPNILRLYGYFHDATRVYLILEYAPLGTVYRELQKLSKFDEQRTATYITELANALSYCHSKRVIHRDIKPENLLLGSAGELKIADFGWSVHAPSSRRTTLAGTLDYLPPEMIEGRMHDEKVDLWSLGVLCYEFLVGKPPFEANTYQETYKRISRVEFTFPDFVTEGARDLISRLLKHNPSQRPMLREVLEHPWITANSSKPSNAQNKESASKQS
# Description: Fluorescence anisotropy (FA) assays: All assays were performed using 384‐well plates (Greiner Bio‐one, UK). […] All samples were prepared in 25 mM Tris, 150 mM NaCl, 5 mM MgCl2, pH 7.5, and tested in triplicate using an EnVisionTM 2103 MultiLabel plate reader (Perkin Elmer; Waltham, MA, USA). The parameters were set as follows: Excitation wavelength=480 nm (30 nm bandwidth) and emission wavelength=535 nm (30 nm bandwidth). Measured data were processed and analysed as previously described.[31] Specifically, the perpendicular intensity (P) and parallel intensity (S) were subtracted by the control values and used for calculations of intensity and anisotropy using the following Equations 1, 2, 3, 4, and 5: (1) I=2PG+S (2) r=S-PG (3) Lb=r-rmin/λrmax-r+r-rmin (4) [drawing 1] (5) y=rmax+rmin-rmax/1+(x/x0)^p
# For competition FA assays, the average anisotropy and the average standard deviation of the values derived from equation (2) were calculated and fit to a sigmoidal logistic model (equation (5)) using Origin 2021. […] Results are reported as IC50±SD, with data points representing the mean of three replicates and error bars indicating the corresponding SD. Where applicable, ΔΔG was determined as follows: ΔΔG=−RT ln (ΔIC50).
# [2] = circular dichroism (CD) spectroscopy; assay type: physicochemical; details: 150 mM NaCl, 5 mM MgCl2, pH 7.5, 5 °C, n=2, free‐thiol (red) samples with 5 mol equivalents TCEP; for MRE222 (mean residue ellipticity at 222 nm): 25 mM Tris, mean ± SD, SD; for % Helicity (estimated): from MRE222 by equation 7, 25 mM Tris
# Description: Circular dichroism (CD): All samples were prepared in Tris buffer (25 mM Tris, 150 mM NaCl, 5 mM MgCl2, pH 7.5) with the exception of free sulfhydryl peptides, to which Tris(2‐carboxyethyl)phosphine (TCEP; 5 mol eq. relative to the peptide) was added. CD spectra were recorded using an APP Chirascan CD spectropolarimeter and 1 mm pathlength quartz cuvettes. Sample concentrations were typically 30–120 μM, as determined by UV−V absorption based on a tryptophan extinction coefficient of 5600 M^−1 cm^−1 and, for mal‐constrained variants, a maleimide coefficient of 1700 M^−1 cm^−1.[16, 32] […] Spectra were recorded in duplicate at 5 °C, over wavelengths ranging from 290 to 180 nm, with data collected every 1 nm (1 nm s^−1). A background spectrum for CD buffer alone was also recorded and background ellipticity values were subtracted from raw sample ellipticity values (θ) when calculating mean residue ellipticities (MREs) using Equation 6: (6) MRE=(θλ-θ0)xMw/nxlxc
# Where [θ]λ is the observed ellipticity at a given wavelength λ in mdeg, [θ]0 is the ellipticity observed for the buffer, Mw =molar weight of the peptide in g mol^−1, n=number of residues; c=sample concentration (mg mL^−1); l=pathlength of the cuvette in mm. Estimates of peptide % helicity were made using Equation 7, [33] (7) %helicity=(MRE222-MREcoil)x100/-425001-3/n
# where MRE222 is the MRE value at 222 nm, MREcoil=640‐45T (with T in °C)=415 deg cm^2 dmol^−1 res^−1 at 5 °C, and n is the number of backbone amide bonds including the N‐terminal acetyl.
IC50 ([1]; SD) [µM],MRE222 (mean residue ellipticity at 222 nm) [2] [deg cm^−1 dmol^−1 res^−1],% Helicity (estimated) [2] [%],IC50 [1] [µM],Compound
107 ± 19,-2656 ± 28,8 ± 1,,CSCC[C@@H]1NC(=O)[C@@H](NC(=O)[C@@H](NC(=O)[C@@H](NC(=O)[C@H](Cc2c[nH]c3ccccc23)NC(=O)[C@H](CO)NC(=O)[C@@H]2CCCN2C(=O)[C@@H]2CCCN2C(=O)[C@H](CCC(=O)O)NC(=O)[C@H](CO)NC(=O)[C@H](CO)NC(=O)[C@H](Cc2c[nH]cn2)NC(=O)[C@H](CCC(=O)O)NC(=O)[C@H](C)NC(=O)[C@H](Cc2ccccc2)NC(=O)CNC(=O)[C@H](CCCNC(=N)N)NC(=O)[C@H](CO)NC(=O)[C@@H]2CCCN2C(=O)[C@H](CO)NC(=O)[C@H](CC(C)C)NC(C)=O)C(C)C)[C@@H](C)O)CSSC[C@@H](C(=O)N[C@@H](CC(N)=O)C(=O)N[C@@H](CCC(=O)O)C(=O)N[C@@H](CC(C)C)C(=O)N[C@@H](Cc2c[nH]c3ccccc23)C(=O)NCC(N)=O)NC(=O)[C@H](CC(C)C)NC(=O)[C@H](CC(C)C)NC1=O [N-Myc 61-89 E80C/E84C ox] (Ac-LSPSRGFAEHSSEPPSWVTCMLLCNELWG-NH2; disulfide 20-24)
219 ± 23,-2630 ± 119,8 ± 1,,CSCC[C@H](NC(=O)[C@H](CCC(=O)O)NC(=O)[C@@H](NC(=O)[C@@H](NC(=O)[C@H](Cc1c[nH]c2ccccc12)NC(=O)[C@H](CO)NC(=O)[C@@H]1CCCN1C(=O)[C@@H]1CCCN1C(=O)[C@H](CCC(=O)O)NC(=O)[C@H](CO)NC(=O)[C@H](CO)NC(=O)[C@H](Cc1c[nH]cn1)NC(=O)[C@H](CCC(=O)O)NC(=O)[C@H](C)NC(=O)[C@H](Cc1ccccc1)NC(=O)CNC(=O)[C@H](CCCNC(=N)N)NC(=O)[C@H](CO)NC(=O)[C@@H]1CCCN1C(=O)[C@H](CO)NC(=O)[C@H](CC(C)C)NC(C)=O)C(C)C)[C@@H](C)O)C(=O)N[C@H]1CSSC[C@@H](C(=O)N[C@@H](CC(C)C)C(=O)N[C@@H](Cc2c[nH]c3ccccc23)C(=O)NCC(N)=O)NC(=O)[C@H](CC(N)=O)NC(=O)[C@H](CCC(=O)O)NC(=O)[C@H](CC(C)C)NC1=O [N-Myc 61-89 L82C/E86C ox] (Ac-LSPSRGFAEHSSEPPSWVTEMCLENCLWG-NH2; disulfide 22-26)
92 ± 13,-2894 ± 119,9 ± 1,,CC(=O)N[C@@H](CC(C)C)C(=O)N[C@@H](CO)C(=O)N1CCC[C@H]1C(=O)N[C@@H](CO)C(=O)N[C@@H](CCCNC(=N)N)C(=O)NCC(=O)N[C@@H](Cc1ccccc1)C(=O)N[C@@H](C)C(=O)N[C@@H](CCC(=O)O)C(=O)N[C@@H](Cc1c[nH]cn1)C(=O)N[C@@H](CO)C(=O)N[C@@H](CO)C(=O)N[C@@H](CCC(=O)O)C(=O)N1CCC[C@H]1C(=O)N1CCC[C@H]1C(=O)N[C@@H](CO)C(=O)N[C@@H](Cc1c[nH]c2ccccc12)C(=O)N[C@H](C(=O)N[C@H](C(=O)N[C@@H](CCC(=O)O)C(=O)N[C@H]1CSSC[C@@H](C(=O)N[C@@H](CCC(=O)O)C(=O)N[C@@H](CC(C)C)C(=O)N[C@@H](Cc2c[nH]c3ccccc23)C(=O)NCC(N)=O)NC(=O)[C@H](CCC(=O)O)NC(=O)[C@H](CC(C)C)NC(=O)[C@H](CC(C)C)NC1=O)[C@@H](C)O)C(C)C [N-Myc 61-89 M81C/N85C ox] (Ac-LSPSRGFAEHSSEPPSWVTECLLECELWG-NH2; disulfide 21-25)
84 ± 9,-2141 ± 88,7 ± 1,,CSCC[C@H](NC(=O)[C@@H]1CSSC[C@H](NC(=O)[C@@H]2CCCN2C(=O)[C@@H]2CCCN2C(=O)[C@H](CCC(=O)O)NC(=O)[C@H](CO)NC(=O)[C@H](CO)NC(=O)[C@H](Cc2c[nH]cn2)NC(=O)[C@H](CCC(=O)O)NC(=O)[C@H](C)NC(=O)[C@H](Cc2ccccc2)NC(=O)CNC(=O)[C@H](CCCNC(=N)N)NC(=O)[C@H](CO)NC(=O)[C@@H]2CCCN2C(=O)[C@H](CO)NC(=O)[C@H](CC(C)C)NC(C)=O)C(=O)N[C@@H](Cc2c[nH]c3ccccc23)C(=O)N[C@@H](C(C)C)C(=O)N[C@@H]([C@@H](C)O)C(=O)N1)C(=O)N[C@@H](CC(C)C)C(=O)N[C@@H](CC(C)C)C(=O)N[C@@H](CCC(=O)O)C(=O)N[C@@H](CC(N)=O)C(=O)N[C@@H](CCC(=O)O)C(=O)N[C@@H](CC(C)C)C(=O)N[C@@H](Cc1c[nH]c2ccccc12)C(=O)NCC(N)=O [N-Myc 61-89 S76C/E80 ox] (Ac-LSPSRGFAEHSSEPPCWVTCMLLENELWG-NH2; disulfide 16-20)
152 ± 15,-1907 ± 23,6 ± 1,,CSCC[C@H](NC(=O)[C@H](CCC(=O)O)NC(=O)[C@H](CS)NC(=O)[C@@H](NC(=O)[C@H](Cc1c[nH]c2ccccc12)NC(=O)[C@H](CO)NC(=O)[C@@H]1CCCN1C(=O)[C@@H]1CCCN1C(=O)[C@H](CCC(=O)O)NC(=O)[C@H](CO)NC(=O)[C@H](CO)NC(=O)[C@H](Cc1c[nH]cn1)NC(=O)[C@H](CCC(=O)O)NC(=O)[C@H](C)NC(=O)[C@H](Cc1ccccc1)NC(=O)CNC(=O)[C@H](CCCNC(=N)N)NC(=O)[C@H](CO)NC(=O)[C@@H]1CCCN1C(=O)[C@H](CO)NC(=O)[C@H](CC(C)C)NC(C)=O)C(C)C)C(=O)N[C@@H](CC(C)C)C(=O)N[C@@H](CS)C(=O)N[C@@H](CCC(=O)O)C(=O)N[C@@H](CC(N)=O)C(=O)N[C@@H](CCC(=O)O)C(=O)N[C@@H](CC(C)C)C(=O)N[C@@H](Cc1c[nH]c2ccccc12)C(=O)NCC(N)=O [N-Myc 61-89 T79C/L83C red] (Ac-LSPSRGFAEHSSEPPSWVCEMLCENELWG-NH2)
,-1767 ± 72,6 ± 1,≥ 500,"CSCC[C@@H]1NC(=O)[C@H](CCC(=O)O)NC(=O)[C@H]([C@@H](C)O)NC(=O)[C@@H](NC(=O)[C@H](Cc2c[nH]c3ccccc23)NC(=O)[C@H](CO)NC(=O)[C@@H]2CCCN2C(=O)[C@@H]2CCCN2C(=O)[C@H](CCC(=O)O)NC(=O)[C@H](CO)NC(=O)[C@H](CO)NC(=O)[C@H](Cc2c[nH]cn2)NC(=O)[C@H](CCC(=O)O)NC(=O)[C@H](C)NC(=O)[C@H](Cc2ccccc2)NC(=O)CNC(=O)[C@H](CCCNC(=N)N)NC(=O)[C@H](CO)NC(=O)[C@@H]2CCCN2C(=O)[C@H](CO)NC(=O)[C@H](CC(C)C)NC(C)=O)CSC2=C(SC[C@@H](C(=O)N[C@@H](CC(C)C)C(=O)N[C@@H](CCC(=O)O)C(=O)N[C@@H](CC(N)=O)C(=O)N[C@@H](CCC(=O)O)C(=O)N[C@@H](CC(C)C)C(=O)N[C@@H](Cc3c[nH]c4ccccc34)C(=O)NCC(N)=O)NC1=O)C(=O)NC2=O [N-Myc 61-89 V78C/L82C mal] (Ac-LSPSRGFAEHSSEPPSWCTEMCLENELWG-NH2; linker 18-22 via Maleimide(3,4-diyl))"
